Measured values taken from US20080248024A1, “THERAPEUTIC AGENT FOR CANCER, INFLAMMATION, AND AUTO-IMMUNE DISEASE CONTAINING INHIBITOR OF ZINC FINGER PROTEIN 91” (Korea Research Institute of Bioscience and Biotechnology, priority 2007, published 2008).
“Also recorded” adds a separate entry of the source. Like-named read-outs stand apart in the source and are kept apart here.

Experiments:
ZFP91 promoter = ZFP91 promoter luciferase reporter assay (pGL3-ZFP91prom-LUC); assay type: cell-based, human
ZFP91 [1] = assay: ZFP91 expression in MCF-7 treated with NF-κB activators; assay type: cell-based, human; conditions: TNF-α 20 ng/ml, PMA 20 ng/ml, IL1-β 20 ng/ml, H2O2 1 mM, 0, 3, 6, 14, 24 hours
Protocol: To examine whether ZFP91 expression was regulated by NF-κB, the breast cancer cell line MCF-7 was treated with the NF-κB activators, TNF-α (20 ng/ml), PMA (20 ng/ml), IL1-β (20 ng/ml) and H2O2 (1 mM) for 0, 3, 6, 14, and 24 hours. After 0, 3, 6, 14, and 24 hours from the treatment, poly(A)^+ RNA was extracted, followed by Northern blotting. The probe used for Northern blotting was prepared as follows; TOPO cloning vector inserted with ZFP91 was digested with EcoRI and the insert alone was used after random prime labeling with [α-^32P]dCTP. ZFP91 expressions over the time were investigated. […] The NF-κB activators p65, IKKα, IKKβ, and NIK were expressed in MCF-7 cells. 48 hours later, ZFP91 expressions in the cells were investigated.

ZFP91 [2] = assay: TNF-α mediated ZFP91 expression in FLAG-ZFP91 expressing AGS cells, Western blotting; conditions: pre-treatment 30 minutes with KA 1, 10 ug/ml, celastrol 0.2, 2 ug/ml, parthenolide 0.5, 5 ug/ml, TNF-α 50 ng/ml 3 hours
Protocol: TNF-α (50 ng/ml) was treated thereto for 3 hours. Then, cell lysate was obtained, followed by Western blot analysis using a mouse anti-FLAG antibody.
FLAG-ZFP91 expressing AGS cells were pre-treated with the NF-κB inhibitors, kamebakaurin (KA), celastrol (Cel), parthenolide (PTN), for 30 minutes. TNF-α mediated ZFP91 expression was investigated by Western blotting using anti-ZFP91 antibody.

[3] = system: PTPN11, SPIN, ECT2, EWSR1, MLLT4, MAGEA4, TNFAIP3 and ZFP91; assay: RT-PCR of candidate genes regulated by kamebakaurin; assay type: cell-based, human; conditions: kamebakaurin 10 μg/ml, 5 hours, MDA-MB-231 cells
Protocol: A human breast cancer cell line MDA-MB-231 cells was treated with DMSO and kamebakaurin (10 μg/ml) respectively, followed by culture for 5 hours. The cells were washed with cold PBS three times, and then total RNA was extracted by using RNeasy Mini kits (Qiagen, Santa Clarita, Calif., USA) 5 μg of the total RNA was used for the synthesis of cDNA using Invitrogen kit Access RT-PCR Kit (Promega, Madison, Wis., U.S.A.). The ZFP91 specific primer was constructed based on the nucleotide sequence of Genebank (Accession No. NM-053023). Each candidate gene specific primer was constructed based on the informed nucleotide sequences (Table 1). PCR was performed with prepared cDNA as follows: predenaturation at 95° C. for 5 minutes, denaturation at 94° C. for 1 minute, annealing at 50° C.-60° C. for 2 minutes, polymerization at 70° C. for 1 minute, 30 cycles from denaturation to polymerization. The gene-specific PCR products proceeded to electrophoresis on 1% agarose gel, followed by EtBr staining (FIG. 1).

HIF-1α = HIF-1α expression induced under 1% oxygen in AGS cells expressing ZFP91; conditions: AGS cells expressing ZFP91, 1% oxygen
[4] = system: MAGEA4, TNFAIP3 and ZFP91; assay: Northern blotting of candidate genes regulated by kamebakaurin; assay type: cell-based, human; conditions: kamebakaurin 10 μg/ml, 5 hours, MDA-MB-231 cells
Protocol: MDA-MB-231 cells were treated with DMSO and kamebakaurin (10 μg/ml), followed by culture for 5 hours. The cells were washed with cold PBS three times, and poly(A)^+ RNA was extracted by using FastTrack 2.0 kit (Invitrogen). 2 μg of the extracted poly (A)^+ RNA was eletrohporesed on 1% agarose-formaldehyde gel, which was transferred onto a nylon membrane (Roche, Mannheim, Germany). To investigate the expressions of selected candidate genes, the PCR product was purified by using Wizard PCR PrepsDNA Purification Systems (Promega Corporation, Madison, Wis., U.S.A.) and then used as a probe. Each probe was labeled with [α-^32P]dCTP using Rediprime™ II random prime labeling system (Amersham Biosciences). Non-incorporated ^32P was removed by using spin column (ProbeQuant™ G-50 Micro Columns; Amersham Biosciences). The prepared cDNA was used as a probe for hybridization with the membrane. After the hybridization, the membrane was washed with 2×SSC/0.1% SDS, which was exposed on X-ray film at −80° C. with intensifying screen.

MDA-MB-435 [5] = assay: MDA-MB-435 xenograft tumor growth in nude mice; assay type: in vivo; conditions: 15 mg/kg into the abdominal cavity every other day, 12 times
Protocol: (§1) The human breast cancer cell line MDA-MB-435 was transplanted in the glandular fatty tissues of nude mice (Charles River Laboratory, Wilmington, Mass., USA) at 5 weeks (1×10^6 cells/mouse). 12 days later, the nude mice having tumor were grouped by 8. Kamebakaurin dissolved in 0.5% Tween 80 was administered into the abdominal cavity every other day at the concentrations of 1.5 and 15 mg/kg 12 times in total. The tumor size was measured for 23 days after the transplantation. The tumor size was calculated by “width 2 (square)×[…]/2=tumor volume (mm^3)”.

MDA-MB-435 [6] = assay: MDA-MB-435 xenograft metastasis to the lung in nude mice; assay type: in vivo; conditions: for Frequency (metastatic mice/total mice) / Minimum metastasis number-maximum metastasis number / number of metastasis in lung (median value) / Mean number of metastasis in lung: 35 days after transplantation; for Mean number of metastasis in lung: colonies >diameter 2 mm
Protocol: as §1
After 35 days from the transplantation, the lung of the mouse was excised and washed with water and fixed in Bouin's solution (SIGMA). The colonies metastasized to the surface of the lung (>diameter 2 mm) were counted under microscope and the mean values are shown in Table 2.

ZFP91 [7] = assay: ZFP91 expression after ZFP91 siRNA, Western blotting; assay type: cell-based, human; conditions: various cancer cells
Source text: To investigate the effect of ZFP91 on HIF-1 activation, a human stomach cancer cell line, AGS cells and AGS cells transformed with ZFP91 were transfected with HRE dependent reporter plasmid. ZFP91 siRNA oligomers (SEQ. ID. NO: 1-NO: 4; siRNA sequences corresponding to amino terminal region ccaggtg gcattagtag tgaa, sense: r(AGG UGG CAU UAG UAG UGA A)dTdT, antisense: r(UUC ACU ACU AAU GCC ACC U)dGdG; produced by GIAGEN) were introduced into the above cell lines by using RANiFect Transfection reagent (QIAGEN, Germany).
Particularly, After 24 hours incubation of 1×10^5 cells/well distributed in a 24-well plate. siRNA oligomer (3.8 ul of SIRNA oligomer: 1 ug) was introduced into the cells with 96.2 ul of medium or EC-R buffer and 6 ul of RNAiFect reagent (Quiagen) and then the plate was kept at room temperature for 10-15 minutes. During the incubation, the medium of 24-well plate was replaced with 300 μl of fresh medium and the mixture of siRNA oligomer and RNAiFect reagent was slowly added and carefully mixed. The reaction mixture was incubated for 24 hours under normoxic condition, and then further cultured for another 24 hours in an incubator in the presence of 1% oxygen. Some of extracts of the cells proceeded to luciferase assay and HIF-1 induced luciferase activity was measured. […]

[8] = ZFP91 promoter containing both KB1 and KB2

Molecule: [Cl-].[Cl-].[Co+2] [CoCl2]
- ZFP91 promoter activity (ZFP91 promoter): significantly increased

Molecule: OO [H2O2]
- ZFP91 promoter activity (ZFP91 promoter; stomach cancer cell line transfected with pGL3-ZFP91prom-LUC): significantly increased
- ZFP91 at mRNA level (ZFP91 [1]): not much increased
- ZFP91 at protein level (ZFP91 [1]): significantly increased time-dependently

Molecule: CCCCCCCCCCCCCC(=O)O[C@@H]1[C@@H](C)[C@@]2(O)[C@@H](C=C(CO)C[C@]3(O)C(=O)C(C)=C[C@@H]23)[C@@H]2C(C)(C)[C@]12OC(C)=O [PMA]
- ZFP91 promoter activity (ZFP91 promoter; [8]): induced
- ZFP91 at mRNA level (ZFP91 [1]): not much increased
- ZFP91 at protein level (ZFP91 [1]): significantly increased time-dependently

Molecule: C=C1C(=O)[C@@]23[C@H](O)C[C@@H]4C(C)(C)CC[C@H](O)[C@@]4(CO)[C@@H]2CC[C@@H]1[C@H]3O [kamebakaurin, Kamebakaurin]
- TNF-α mediated ZFP91 expression (ZFP91 [2]): suppressed; also recorded: inhibited
- expression of PTPN11, SPIN, ECT2, EWSR1, MLLT4, MAGEA4, TNFAIP3 and ZFP91 (RT-PCR) [3]: down-regulated by at least two times
- HIF-1α expression / accumulation (HIF-1α): suppressed; also recorded: inhibited; also recorded: significantly reduced
- expression levels of MAGEA4, TNFAIP3 and ZFP91 (Northern blotting) vs KA-non-treated control [4]: significantly different
- tumor growth (MDA-MB-435 [5]): significantly inhibited
- Frequency (metastatic mice/total mice) (MDA-MB-435 [6]; 1.5 mg/kg): 6/8
- Minimum metastasis number-maximum metastasis number (MDA-MB-435 [6]; 1.5 mg/kg): (0-6)
- number of metastasis in lung (median value) (MDA-MB-435 [6]; 1.5 mg/kg): 3
- Mean number of metastasis in lung (MDA-MB-435 [6]; 1.5 mg/kg): 3.3
- Frequency (metastatic mice/total mice) (MDA-MB-435 [6]; 15 mg/kg): 6/8
- Minimum metastasis number-maximum metastasis number (MDA-MB-435 [6]; 15 mg/kg): (0-4)
- number of metastasis in lung (median value) (MDA-MB-435 [6]; 15 mg/kg): 2
- Mean number of metastasis in lung (MDA-MB-435 [6]; 15 mg/kg): 1.8
- metastasis to the lung (MDA-MB-435 [6]; 15 mg/kg, nude mice, MDA-MB-435): significantly inhibited

Molecule: IL-1β: pro-inflammatory cytokine, NF-κB activator
- ZFP91 promoter activity (ZFP91 promoter; [8]): induced
- ZFP91 at mRNA level (ZFP91 [1]): not much increased
- ZFP91 at protein level (ZFP91 [1]): significantly increased time-dependently

Molecule: TNF-α
- ZFP91 promoter activity (ZFP91 promoter; [8]): induced
- ZFP91 at mRNA level (ZFP91 [1]): not much increased
- ZFP91 at protein level (ZFP91 [1]): significantly increased time-dependently

Molecule: ZFP91 siRNA 1: siRNA corresponding to the nucleotide sequence 710-730 (NCBI, NM-053023) of ZFP91, SEQ. ID. NO: 1 and NO: 2 (chain 1 GGCAUUAGUAGUGAA; chain 2 UUCACUACUAAUGCCACCU; listed as RNA, chemistry not fully specified)
- ZFP91 expression (ZFP91 [7]): Suppression

Molecule: ZFP91 siRNA 2: siRNA corresponding to nucleotides 2261-2279 of 3′ untranslated region of ZFP91, SEQ. ID. NO: 3 and NO: 4 (chain 1 GCGGCACACUUAUCUUCAA; chain 2 UUGAAGAUAAGUGUGCCGC; listed as RNA, chemistry not given here)
- ZFP91 expression (ZFP91 [7]): Suppression
